{"source": "patent US8187635B2", "about": "“Pharmaceutical composition containing a pyrrolidone anticonvulsant agent and method for the preparation thereof” (Pharmathen S.A, priority 2007, dated 2012)", "key": {"[1]": {"assay": "Compatibility of Levetiracetam with excipients (impurity profile)", "format": "physicochemical", "method": "Levetiracetam was tested for its compatibility with several pharmaceutically acceptable excipients comprising the above mentioned properties."}, "[2]": {"settings": "cited from earlier work"}, "[3]": {"settings": "cited from earlier work", "remark": "listed apart in the source"}}, "note": "Where two headings read alike, the source gives them in different places."}
{"smiles": "CC[C@@H](C(N)=O)N1CCCC1=O", "note": "[Levetiracetam, S-enantiomer of α-ethyl-2-oxo-1-pyrrolidine acetamide]", "values": [{"measurement": "impurity profile of the active ingredient with excipient", "setting": "[1]; with PVP", "value": "not acceptable"}, {"measurement": "impurity profile of the active ingredient with excipient", "setting": "[1]; with sodium starch glycolate (Primojel)", "value": "not acceptable"}, {"measurement": "solubility", "setting": "[2]; in acetonitrile", "value": "sparingly soluble"}, {"measurement": "solubility", "setting": "[2]; in chloroform", "value": "freely soluble"}, {"measurement": "solubility", "setting": "[2]; in methanol", "value": "freely soluble"}, {"measurement": "solubility", "setting": "[2]; in n-hexane", "value": "practically insoluble"}, {"measurement": "solubility", "setting": "[2]; in water", "value": "very soluble"}, {"measurement": "bioavailability", "setting": "[3]", "value": 100, "unit": "%"}, {"measurement": "protein binding", "setting": "[3]", "value": "lack of protein binding"}]}
